Source: patent US20040063661A1, “Treatment of statin side effects” (priority 2000, published 2004)
Marks after values point to notes of the source that are not given here.

System: chronic fatigue syndrome
Assay: Case report: self assessed well being, day to day tasks and muscle pain in a chronic fatigue syndrome patient on Q10 (Example 2)
Type: in vivo, human
Conditions: for Feeling of Well Being / Absence of Muscle Pain / Heavy Work (1 hour) / Light Work/Walking / Sedentary Work / Work: teacher / Wellness Score (out of 60): Q10 2×50 mg per day; for Feeling of Well Being: self rated 0-10 (10 = best); for Absence of Muscle Pain: self rated 0-10 (10 = complete absence of pain); for Wellness Score (out of 60): sum of the six self ratings
Protocol: The patient had suffered for a number of years from chronic fatigue syndrome. The condition was severe enough such that they were unable to pursue their teaching career and day to day tasks were generally performed with a general sense of fatigue and muscle pain. Muscle pain was generally controlled with over the counter (ie. non-prescription) analgesics containing 500 mg paracetamol and 8 mg codeine phosphate, 2-4 tablets per day. Table 1 provides a summary of the patient's self assessed levels of general sense of well being, ability to perform day to day tasks and level of (or relative absence of) muscle pain during a dosing regimen of 2×50 mg per day of Q10(50 mg taken each at breakfast and dinner). Levels were rated by the patient on a scale of 0-10, with 0 representing severe incapacity or pain and 10 representing the complete absence of pain or fatigue/excellent performance. FIG. 1 depicts the self assessed (absence of) pain levels for the patient, over a period of 30 days, on a scale of […], where 0 is severe pain and 10 relates to an absence of pain (wellness). On day 1 the patient commenced taking 100 mg of Q10 per day until day 10 when the dosage was increased to 200 mg per day

[1] = Day 1, self rated 0-10 (10 = excellent performance)
[2] = Day 2, self rated 0-10 (10 = excellent performance)
[3] = Day 3, self rated 0-10 (10 = excellent performance)
[4] = Day 4, self rated 0-10 (10 = excellent performance)
[5] = Day 5, self rated 0-10 (10 = excellent performance)
[6] = Week 2, self rated 0-10 (10 = excellent performance)
[7] = Week 12, self rated 0-10 (10 = excellent performance)

With `COC1=C(OC)C(=O)C(C/C=C(\C)CC/C=C(\C)CC/C=C(\C)CC/C=C(\C)CC/C=C(\C)CC/C=C(\C)CC/C=C(\C)CC/C=C(\C)CC/C=C(\C)CCC=C(C)C)=C(C)C1=O` [Q10, Coenzyme Q10] the “self assessed (absence of) pain levels, FIG. 1” value (30 day period, 100 mg of Q10 per day from day 1, 200 mg per day from day 10) was “increasing absence of muscle pain”, the “Feeling of Well Being” value (Day 1) was 4 and the “Absence of Muscle Pain” value (Day 1, patient required 2x analgesic tablets) was 3*. The “Heavy Work (1 hour)” value [1] was 0, the “Light Work/Walking” value [1] was 4 and the “Sedentary Work” value [1] was 3. For the same molecule, the “Work: teacher” value [1] was 0, the “Wellness Score (out of 60)” value (Day 1) was 14 and the “Feeling of Well Being” value (Day 2) was 4. The “Absence of Muscle Pain” value (Day 2, patient required 2 × 2 (4) analgesic tablets) was 3**, the “Heavy Work (1 hour)” value [2] was 0 and the “Light Work/Walking” value [2] was 4. The “Sedentary Work” value [2] was 3, the “Work: teacher” value [2] was 0 and the “Wellness Score (out of 60)” value (Day 2) was 14. For the same molecule, the “Feeling of Well Being” value (Day 3) was 5, the “Absence of Muscle Pain” value (Day 3) was 7 and the “Light Work/Walking” value [3] was 6. For the same molecule, the “Sedentary Work” value [3] was 4, the “Work: teacher” value [3] was 0 and the “Heavy Work (1 hour)” value (Day 3, self rated 0-10, patient performed only ½ hour heavy work) was 3***. For the same molecule, the “Wellness Score (out of 60)” value (Day 3) was 25, the “Feeling of Well Being” value (Day 4) was 6 and the “Absence of Muscle Pain” value (Day 4) was 7. For the same molecule, the “Light Work/Walking” value [4] was 6, the “Sedentary Work” value [4] was 5 and the “Work: teacher” value [4] was 0. For the same molecule, the “Heavy Work (1 hour)” value (Day 4, self rated 0-10, patient performed only ½ hour heavy work) was 3***, the “Wellness Score (out of 60)” value (Day 4) was 27 and the “Feeling of Well Being” value (Day 5) was 7. For the same molecule, the “Absence of Muscle Pain” value (Day 5) was 7, the “Light Work/Walking” value [5] was 7 and the “Sedentary Work” value [5] was 6. The “Work: teacher” value [5] was 0, the “Heavy Work (1 hour)” value (Day 5, self rated 0-10, patient performed only ½ hour heavy work) was 3*** and the “Wellness Score (out of 60)” value (Day 5) was 30. The “Feeling of Well Being” value (Week 2) was 7, the “Absence of Muscle Pain” value (Week 2) was 7 and the “Heavy Work (1 hour)” value [6] was 5. For the same molecule, the “Light Work/Walking” value [6] was 7, the “Sedentary Work” value [6] was 7 and the “Work: teacher” value [6] was 3. The “Wellness Score (out of 60)” value (Week 2) was 36, the “Feeling of Well Being” value (Week 12) was 9 and the “Absence of Muscle Pain” value (Week 12) was 9. For the same molecule, the “Heavy Work (1 hour)” value [7] was 8, the “Light Work/Walking” value [7] was 9 and the “Sedentary Work” value [7] was 9. For the same molecule, the “Work: teacher” value [7] was 8 and the “Wellness Score (out of 60)” value (Week 12) was 52.
